Experimental data from patent US20060127505A1, “Anti-inflammatory formulations” (priority 2002, published 2006).

Legend:
PMA/I-treated human PBMC = test: Inflammation-associated T cell surface antigens (CD25, CD54) in PMA/I-treated human PBMC, two-color flow cytometry; assay type: cell-based
Procedure: In vitro studies indicate that astaxanthin suppresses expression of inflammation-associated T cell surface antigens in PMA/I-treated human PBMC. […]
Analysis of blood for representation by selected lymphocyte subpopulations was conducted by two-color flow cytometry.

TNF-α = TNF-α expression by PHA-stimulated human PBMC, ELISA of supernatant; assay type: cell-based; conditions: PHA 50 μg/ml, 24 hours; 10^−6 M
Procedure: PBMC (2×10^6/ml) from 2 donors were stimulated with 50 μg/ml, PHA; or with astaxanthin (10^−6 M); or with the ginkgolide BN52021 (GB) (10^−4 M); or with a combination of astaxanthin (10^−6 M) plus GB (10^−4 M); or with media. Cells were cultured 24 hours at 37° C., 5% CO2 and analyzed by ELISA for supernatant concentration of TNF-α. Each data point is the mean of triplicate samples.

[1] = test system: CD3+CD25+ cells in human PBMC; test: T lymphocyte activation (CD3+CD25+) in PHA-stimulated PBMC of asthma patients (Example 6); assay type: cell-based; conditions: PHA 50 μg/ml, 24 hours; 10^−7 M
Procedure: Experiments were carried out to determine whether formulations based on the platelet activating factor receptor (PAFR) antagonist and free radical scavenger Ginkgolide B (GB) in combination with the antioxidant carotenoid astaxanthin (ASX) suppress T cell activation in the same dose range as two commonly-used antihistamines: cetirizine dihydrochloride (CTZ/Zyrtec) and azelastine ([…]). […] Results are reported as stimulation indices (SI) of % CD3+CD25+ cells in cultures treated with PHA alone to % CD3+CD25+ cells in each drug-supplemented culture. […] Subjects for this study included 12 patients diagnosed with atopic asthma, 7 male and 5 female, ranging in age from 21 to 40 years (mean 28±1.8 years). Disease duration ranged from 2 to 12 years. Atopy was defined on the basis of one or more positive skin prick tests to a range of 20 allergens. None of the patients had received systemic therapy for at least 6 weeks prior to blood collection. The mean serum IgE was 335 (170-480) IU/ml. Venous blood for each subject was collected in polyethylene tubes containing EDTA during a one hour morning time interval. PBMC were separated by Ficoll-paque (Pharmacia, Uppsala, Sweden) density gradient centrifugation. Cells were washed and suspended in RPMI 1640 medium (Gibco BRL, Gaithersburg, Md.) at density of 1×10^6 cells/ml. PBMC were stimulated with 50 μg/ml Phytohemaglutinin (PHA) (Sigma Immunopharmaceuticals, St. Lous Mo.), or PHA plus 10^-8-10^-5 M astaxanthin (Natural Alternatives International (NAI) Inc., San Marcos Calif.); or ginkgolide B 10^-8-10^-6 M (NAI San Marcos Calif.); or selected combinations of ASX plus GB. Comparison of ASX and GB effects on T cell activation were made with two other pharmacological agents with anti-asthmatic properties by treating cells with 10^-7-10^-4 M cetirizine dihydrochloride (Pfizer Pharmaceuticals, Norwich Conn.); or 10^-7-10^-4 M azalestine hydrochloride (Wallace Pharmaceuticals, Somerset N.J.), followed by evaluation of cultures for the same biological endpoints as ASX/GB-treated cells. Each reagent was added at the outset of a 24 hours culture period, followed by harvest of cellular fraction for immunophenotyping studies. […] Two-color Flow cytometry was conducted using a Coulter Epics XL automated flow cytometer (Coulter Scientific, Hialeah, Fla., USA). Isotypic controls for the monoclonal antibodies (mAb) used to detect antigens of interest were established for each cell preparation. Positive analysis regions for cells expressing specific surface markers were set against controls and specific binding of fluorophore-conjugated mAb was analyzed by cytofluorography according to standard methods recommended by the manufacturer. Lymphocyte subpopulations were identified by position on forward and side scatter plots and live-gated. Expression of each antigen was reported as percentage cells positive for a particular T cell subpopulation defined by expression of CD3 (T lymphocyte marker) plus CD25, plus or minus standard error. Statistical analysis was performed using an independent t-test. All statistical analyses were performed using the SPSS for Windows statistical package (Norusis/SPSS, Inc.). […] The capacity of formulations evaluated in this study to suppress immune activation was measured as a stimulation index (SI), defined as the ratio of […].

[2] = test system: CD3+HLA-DR+ lymphocytes in human PBMC; test: PHA-mediated induction of CD3+HLA-DR+ lymphocytes in human PBMC (Example 8); assay type: cell-based; conditions: PHA 50 μg/ml, 24 hours
Procedure: Cells from 3-12 asthma patients were cultured 24 hours with 50 μg/ml PHA. PBMC evaluated by 2-color flow cytometry were gated for CD3+ and analyzed for CD3+CD25+ or CD3+HLA-DR+ as a percentage of the CD3+ population. Results are reported as stimulation indices (SI) calculated as the ratio of % CD3+CD25+ cells or % CD3+HLA-DR+ cells in fully-stimulated cultures to % CD3+CD25+ or % CD3+HLA-DR+ respectively in cells treated with PHA plus ASX, GB, or combinations thereof.

[3] = Allergy symptoms in an allergy patient; assay type: in vivo, human
Procedure: Astaxanthin or astaxanthin plus a cetirizine together was administered to an allergy patient.

CC1=C(/C=C/C(C)=C/C=C/C(C)=C/C=C/C=C(C)/C=C/C=C(C)/C=C/C2=C(C)C(=O)[C@@H](O)CC2(C)C)C(C)(C)C[C@H](O)C1=O [astaxanthin, 3,3′-dihydroxy-4,4′-diketo-B-carotene]
% CD3+CD54+ cells (PMA/I-treated human PBMC; Subject A, first column, 10^-6 M): 4.2% | % CD3+CD54+ cells (PMA/I-treated human PBMC; Subject A, first column, 10^-7 M): 8.4% | % CD3+CD54+ cells (PMA/I-treated human PBMC; Subject A, second column, 10^-6 M): 3.3% | % CD3+CD54+ cells (PMA/I-treated human PBMC; Subject A, second column, 10^-7 M): 10.6% | % CD3+CD54+ cells (PMA/I-treated human PBMC; Subject B, first column, 10^-6 M): 6.3% | % CD3+CD54+ cells (PMA/I-treated human PBMC; Subject B, first column, 10^-7 M): 16.2% | % CD3+CD54+ cells (PMA/I-treated human PBMC; Subject B, second column, 10^-6 M): 10.3% | % CD3+CD54+ cells (PMA/I-treated human PBMC; Subject B, second column, 10^-7 M): 21.9% | TNF-alpha (TNF-α): 781.34 pg/mL | SI (CD3+CD25+) [1]: 0.89±0.06 | CD3+HLA-DR+ Stimulation Index ([2]; 10^−4 M): 0.85 ± 0.18 | CD3+HLA-DR+ Stimulation Index ([2]; 10^−5 M): 0.79 ± 0.19 | CD3+HLA-DR+ Stimulation Index ([2]; 10^−6 M): 0.83 ± 0.23 | CD3+HLA-DR+ Stimulation Index ([2]; 10^−7 M): 0.71 ± 0.23 | CD3+HLA-DR+ Stimulation Index ([2]; 10^−8 M): 0.68 ± 0.16 | alleviation of allergy symptoms such as itching [3]: did not result in alleviation of allergy symptoms
